Assay results as given in PMC11054906 (Pharmaceuticals, 2024).

How the values were obtained:
[1] = Population PK analysis (NLME, Monolix) of empagliflozin plasma concentrations from two phase 1 crossover studies; type: in vivo, healthy Korean subjects
Description: Data from two clinical studies (NCT03849495 and NCT03848637) were used in this study to develop the PK model and conduct population PK analysis. Both of the studies were randomized, open-label, two-period, two-sequence, crossover studies comparing the PK characteristics, safety and tolerability profiles of the two study drugs in healthy Korean subjects. Healthy subjects aged between 19 and 50 years with BMIs of 18–27 kg/m^2 were recruited for both studies. Subjects without any clinically significant medical history, and without any clinically significant findings in physical examinations, vital signs, 12-lead electrocardiograms (ECG), and clinical laboratory test results were eligible for the studies. Subjects who could not abstain from alcohol, smoking, or drug use throughout the study were excluded. To ensure safety, subjects with any allergies to the study medications were also excluded. Adverse drug reactions were assessed throughout the study period, and the monitoring of physical examinations, vital signs, 12-lead ECG, and laboratory tests was also performed.
Demographic data, clinical laboratory data, and time–plasma concentration data were pooled to develop a population PK model.
Blood samples were collected before drug administration (0 h) and 0.33 h, 0.67 h, 1 h, 1.5 h, 2 h, 2.5 h, 3 h, 4 h, 6 h, 8 h, 10 h, 12 h, 24 h, 34 h, and 48 h after study’s drug administration in the first study. In the second study, blood samples were also collected at 3.5 h and 5 h. Thus, a total of 16 and 18 blood samples were collected from each healthy volunteer in the two clinical studies, respectively. […] In the second study, the plasma concentrations of empagliflozin were quantified by using liquid chromatography–mass spectrometry (LC–MS) equipped with API 4000 (SCIEX; multiple reaction monitoring, electrospray ionization, and positive SCIEX mode). All experiments adhered to the standards of good laboratory practice as described previously. The calibration ranges in these two studies were 2–1500 ng/mL and 0.5–150 ng/mL, respectively.
The population PK analysis was conducted using a nonlinear mixed effect (NLME) modeling method with Monolix® Suite 2021R1 (Lixoft, Antony, France). The stochastic approximation expectation maximization (SAEM) algorithm was implemented, and model qualification was performed using a likelihood ratio test, Bayesian information criterion (BIC), goodness-of-fit (GOF) diagnostic plots, and visual predictive checks (VPCs). Various compartment models with lag time, transit compartment, and Weibull absorption were established to construct the base PK model.
After the development of the base model, interindividual variability (IIV), interoccasion variability (IOV), and residual errors were added to the model. Because of the crossover study design, the random variation in the population PK parameters was described by both the IIV and IOV, with all the individual parameters considered to be log-normally distributed. IIV and IOV were sequentially implemented, and the parameters were subsequently removed or fixed at low values when converging to zero. The exponential random effects terms for the IIV and IOV are shown in Formulas (2) and (3), respectively. (2) Pi=θk×e^ηi where Pi represents the parameter value k from individual i and θk describes the population value of parameter k. ηi denotes the difference between Pi and θk. (3) Pi,occ=θk×e^ηi+Kkiq where Pi,occ is the individual parameter value k from individual i at occasion q that differs from the typical individual value by an additional random effect Kkiq. An occasion was characterized as the time period from the start of an infusion until the start of the next administration. ηki and Kkiq were assumed to be symmetrically distributed with a zero mean and a variance of σ^2 and γ^2, respectively. […]

[2] = design: method as in PMID 23940010, PMID 27312794, PMID 29251772, PMID 24964723; conditions: cited from earlier work
[3] = 1000 bootstrap resampling, interindividual variability
[4] = 1000 bootstrap resampling, interoccasion variability
[5] = final model, oral single dose, both formulations pooled

Compound: OC[C@H]1O[C@@H](c2ccc(Cl)c(Cc3ccc(O[C@H]4CCOC4)cc3)c2)[C@H](O)[C@@H](O)[C@@H]1O [empagliflozin, Empagliflozin]
- CL, median of bootstrap (95% CI) ([1]; 1000 bootstrap resampling): 8.21 (7.945–8.465) L/h
- Ka, median of bootstrap (95% CI) ([1]; 1000 bootstrap resampling): 0.25 (0.23–0.275) h^−1
- Ktr, median of bootstrap (95% CI) ([1]; 1000 bootstrap resampling): 8.94 (6.766–11.728) h^−1
- Mtt, median of bootstrap (95% CI) ([1]; 1000 bootstrap resampling): 0.64 (0.526–0.725) h
- Q, median of bootstrap (95% CI) ([1]; 1000 bootstrap resampling): 4.66 (3.979–5.456) L/h
- V1, median of bootstrap (95% CI) ([1]; 1000 bootstrap resampling): 0.64 (0–1.889) L
- V2, median of bootstrap (95% CI) ([1]; 1000 bootstrap resampling): 43.93 (41.255–47.171) L
- b (residual variability), median of bootstrap (95% CI) ([1]; 1000 bootstrap resampling): 0.16 (0.141–0.175)
- βCL_logWT, median of bootstrap (95% CI) ([1]; 1000 bootstrap resampling): 0.64 (0.366–0.926)
- βV2_logWT, median of bootstrap (95% CI) ([1]; 1000 bootstrap resampling): 0.54 (0.221–0.851)
- ωCL, median of bootstrap (95% CI) [1, 3]: 0.12 (0.101–0.141)
- ωKa, median of bootstrap (95% CI) [1, 3]: 0.16 (0.116–0.208)
- ωV2, median of bootstrap (95% CI) [1, 3]: 0.13 (0.1–0.172)
- γCL, median of bootstrap (95% CI) [1, 4]: 0.04 (0.025–0.06)
- γKa, median of bootstrap (95% CI) [1, 4]: 0.04 (0.023–0.062)
- γKtr, median of bootstrap (95% CI) [1, 4]: 1.11 (0.858–1.334)
- γMtt, median of bootstrap (95% CI) [1, 4]: 0.44 (0.359–0.528)
- b, residual variability (proportional error) ([1]; final model): 0.16
- βV2_logWT (effect of log-transformed body weight on V2) ([1]; final model, covariate coefficient): 0.57
- Ktr (transit rate constant), population value ([1]; final model, oral single dose 25 mg or 5 mg (with metformin 1000 mg), both formulations pooled): 9.19 h⁻¹
- CL (clearance), population value [1, 5]: 8.21 L/h
- Ka (absorption rate constant), population value [1, 5]: 0.26 h⁻¹
- Mtt (mean transit time for absorption), population value [1, 5]: 0.63 h
- V1, population value [1, 5]: 0.6 L
- Mtt (mean transit time) ([1]; final two-compartment transit model): 37.8 min
- number of transit compartments ([1]; from Formula (1), Mtt and Ktr of the final model): 4.79
- γCL, interoccasion variability ([1]; presented as SD (CV)): 4.3%
- γKa, interoccasion variability ([1]; presented as SD (CV)): 0.029 (2.90) %
- γKtr, interoccasion variability ([1]; presented as SD (CV)): 1.17 (171.20) %
- γMtt, interoccasion variability ([1]; presented as SD (CV)): 0.42 (43.92) %
- ωCL, interindividual variability ([1]; presented as SD (CV)): 0.12 (12.04) %
- ωV2, interindividual variability ([1]; presented as SD (CV)): 0.13 (13.06) %
- estimated Mtt ([2]; three transit compartment model): 30 min
- lag time (fixed) of lagged first-order oral absorption ([2]; two-compartment model): 0.5 h
